The source of these data is patent US9402856B2, “Pharmaceutical composition for preventing or treating diabetes containing TENC1 expression or activity suppressor” (POSTECH ACADEMY-INDUSTRY FOUNDATION, priority 2012, dated 2016).

Residues, ends and D or L forms follow the SMILES beside them. *: point of attachment. Cbz = O=C(OCc1ccccc1)*

In test [1] the target is T1, TENC1 (Homo sapiens, UniProt Q63HR2, P1246L).
T1 sequence (Q63HR2 1-1409 P1246L): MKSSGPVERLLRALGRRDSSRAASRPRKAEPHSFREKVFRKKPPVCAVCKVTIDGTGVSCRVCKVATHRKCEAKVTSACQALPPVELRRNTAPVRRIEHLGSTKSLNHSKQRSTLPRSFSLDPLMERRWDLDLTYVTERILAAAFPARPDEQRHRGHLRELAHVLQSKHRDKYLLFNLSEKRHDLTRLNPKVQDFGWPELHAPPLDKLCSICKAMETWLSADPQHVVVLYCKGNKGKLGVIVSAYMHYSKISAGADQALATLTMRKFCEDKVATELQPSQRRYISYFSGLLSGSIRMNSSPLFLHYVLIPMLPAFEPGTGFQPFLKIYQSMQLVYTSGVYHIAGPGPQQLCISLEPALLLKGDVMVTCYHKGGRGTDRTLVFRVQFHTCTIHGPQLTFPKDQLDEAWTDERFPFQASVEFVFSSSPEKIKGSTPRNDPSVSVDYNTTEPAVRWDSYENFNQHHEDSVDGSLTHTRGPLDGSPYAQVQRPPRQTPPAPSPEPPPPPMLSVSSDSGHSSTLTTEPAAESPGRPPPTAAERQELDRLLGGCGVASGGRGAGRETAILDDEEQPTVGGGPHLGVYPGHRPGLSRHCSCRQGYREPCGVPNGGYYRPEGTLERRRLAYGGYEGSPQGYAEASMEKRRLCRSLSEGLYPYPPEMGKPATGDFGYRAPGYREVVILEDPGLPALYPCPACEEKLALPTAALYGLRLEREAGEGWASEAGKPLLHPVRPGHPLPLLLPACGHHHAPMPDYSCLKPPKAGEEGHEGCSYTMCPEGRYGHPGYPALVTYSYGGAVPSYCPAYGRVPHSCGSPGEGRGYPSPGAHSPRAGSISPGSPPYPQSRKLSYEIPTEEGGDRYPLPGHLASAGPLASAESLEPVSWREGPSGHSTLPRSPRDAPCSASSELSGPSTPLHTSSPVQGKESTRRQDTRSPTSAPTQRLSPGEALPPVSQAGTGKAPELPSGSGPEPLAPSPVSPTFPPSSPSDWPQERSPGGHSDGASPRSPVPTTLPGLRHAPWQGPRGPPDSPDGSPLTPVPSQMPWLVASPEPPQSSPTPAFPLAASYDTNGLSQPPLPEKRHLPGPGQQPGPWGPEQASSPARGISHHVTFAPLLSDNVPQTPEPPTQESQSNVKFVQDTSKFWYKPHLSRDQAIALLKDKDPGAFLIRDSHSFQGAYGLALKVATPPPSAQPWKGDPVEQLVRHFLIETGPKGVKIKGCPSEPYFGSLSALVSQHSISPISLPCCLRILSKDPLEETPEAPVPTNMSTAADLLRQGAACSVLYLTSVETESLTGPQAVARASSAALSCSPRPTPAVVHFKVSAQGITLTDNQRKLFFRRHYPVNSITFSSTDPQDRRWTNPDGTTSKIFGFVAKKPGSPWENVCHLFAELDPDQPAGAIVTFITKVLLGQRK
The experiment in a line: degradation of IRS-1 protein in myotube overexpressing TENC1, Western blotting. Type of test: cell-based. Further details: expressed in transfected cells; host or cells: L6 myotube (adenoviral overexpression). Here is the method: In order to know a physiological function of TENC1, TENC1 was overexpressed in L6 myotube (muscle cell) that plays a main role in IRS-1, using an adenovirus. Using the same method as in Example 1, the quantitative PCR was performed and it was confirmed that TENC1 mRNA was increased eightfold to tenfold in the myotube. Then, using the same method as in Example 2, phosphorylation of proteins associated with IRS-1 was determined.
Accordingly, in order to determine the reason for the decrease of IRS-1, it was determined whether TENC1 influences a ubiquitin proteasome pathway or serine phosphorylation of IRS-1 by Western blotting. In order to determine whether TENC1 influences a protein-degrading mechanism, MG132, which is an inhibitor of a protein-degrading enzyme (proteasome), was treated.
In order to determine whether the PTPase activity of TENC1 influences degradation of IRS-1, vanadate was treated to determine whether degradation of IRS-1 is suppressed by Western blotting.

Test [2] concerns the target T2, PTPase domain of TENC1 (Homo sapiens, UniProt Q63HR2, P1246L).
T2 construct: expressed in transfected cells
T2 sequence (Q63HR2 1-1409 P1246L): T1 sequence (Q63HR2 1-1409 P1246L)
The experiment in a line: binding of TENC1 and IRS-1, immunoprecipitation using IRS-1. The note with it: FIG. 5. How it is done: In order to determine a mechanism of TENC1 that suppresses phosphorylation of IRS-1, immunoprecipitation was performed using IRS-1. In a control experiment, vanadate, which is an analogue of phosphotyrosine and binds to a PTPase domain to inhibit the PTPase activity, was used.

For test [3], the target named is T1, TENC1. The experiment in a line: PTPase activity of separated TENC1, malachite green assay. As to conditions: separated TENC1 proteins, FIG. 16A. Further details: expressed in transfected cells. It is filed as biochemical. How it is done:
In addition, in order to measure the PTPase activity of TENC1, first, TENC1 was separated from HEK293 cell lines using a Flag immunoprecipitation/Flag peptide elution system. Then, the PTPase activity of the separated TENC1 was measured over time, using peptides having phosphotyrosine. The PTPase activity was analyzed by a malachite green assay method. As a control group, PTEN (a phosphatase and tensin homolog) or the TENC1 CS variant was used.
As a result, it was confirmed that the PTPase activity of TENC1 was inhibited by 60% or more (FIG. 16A).

Turning to `CC(C)C[C@@H](C=O)NC(=O)[C@H](CC(C)C)NC(=O)[C@H](CC(C)C)NC(=O)OCc1ccccc1` [MG132] (Cbz-Leu-Leu-Leu-aldehyde), the “amount of IRS-1” value in test [1] (with and without insulin, TENC1 overexpressed, FIG. 9) was “the decreased amount of IRS-1 was restored”.

In the case of `[O]=[V]([O-])([O-])[O-]` [vanadate], in test [2], the “binding of TENC1 WT with IRS-1” value is “binding with IRS-1 decreased”. Moreover, the “degradation of IRS-1” value in test [1] (vanadate treated, Western blotting, FIG. 10) is given as “degradation of IRS-1 was suppressed”. For orientation: inhibition means the drop in the measured response relative to a control, in per cent. Lower therefore signals a response near the control. In the case of `C[C@H]1[C@H](C)CC[C@]2(C(=O)O)CC[C@]3(C)C(=CC[C@@H]4[C@@]5(C)CC[C@H](O)C(C)(C)[C@@H]5CC[C@]43C)[C@H]12` [ursolic acid], in test [3], the inhibition at 20 µM was ≥ 60%. Besides, the “degree of degradation of IRS-1 protein” value in test [1] (myotube overexpressing TENC1, increasing concentration, FIG. 16C) is on record as “IRS-1 is restored to a level similar to a control group”.
